Patent US20230398140A1, “OCULAR-TENSION-INCREASING AGENT CAPABLE OF BEING DEPRIVED OF DRUG ACTIVITY BY TEMPERATURE CONTROL” (UNIVERSITY OF YAMANASHI, priority 2020, published 2023)

System: White house rabbits
Conditions: rabbit, in vivo
Description: White house rabbits (2 to 3.5 kg) were positioned with a positioner and ocular tension was measured by a handy tonometer (Icare TONOVET Plus, M.E, Technica) while they were kept awake, and then anesthetized with ketamine and xylazine (ketamine hydrochloride 60 mg/kg; Sankyo, Tokyo, Japan and xylazine 10 mg/kg; Bayer, Munich, Germany). Ocular tension was again measured, and eyeballs were observed by a microscope under anesthesia. Thereafter, 100 μL of 1 wt % POxMix was injected into the anterior chamber of just one of the eyes of each rabbit. Microscopic observation and tonometry were carried out immediately after injection, 30 minutes and 24 hours after anesthesia.

poly(2-propyl-2-oxazoline) [POx]
cloudiness of eyeball after 24 hours: deposited on the iris and lens surface with the passage of time and remained as a white sediment
cloudiness of eyeball immediately after administration: became cloudy
